Reference: ChEMBL document CHEMBL1140425, “Discovery of indoles as potent and selective inhibitors of the deacetylase SIRT1” (J Med Chem, 2005)

Tests used:
[1] = target: T1, NAD-dependent protein deacetylase sirtuin-3, mitochondrial (Homo sapiens, UniProt Q9NTG7); assay: Inhibitory activity against recombinant human SIRT3 expressed in Escherichia coli by fluorimetric assay
T1 sequence (Q9NTG7 whole entry): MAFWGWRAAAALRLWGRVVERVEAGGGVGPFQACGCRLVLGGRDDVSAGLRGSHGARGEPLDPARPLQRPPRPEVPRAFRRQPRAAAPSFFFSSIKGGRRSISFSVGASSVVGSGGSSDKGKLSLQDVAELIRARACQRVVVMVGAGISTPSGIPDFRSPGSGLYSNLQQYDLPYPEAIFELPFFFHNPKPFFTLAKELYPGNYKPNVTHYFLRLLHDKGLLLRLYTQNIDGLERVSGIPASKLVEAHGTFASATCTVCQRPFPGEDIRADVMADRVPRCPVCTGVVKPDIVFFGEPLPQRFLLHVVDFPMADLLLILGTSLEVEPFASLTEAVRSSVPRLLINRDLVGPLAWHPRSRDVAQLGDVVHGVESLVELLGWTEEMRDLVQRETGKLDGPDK

[2] = target: Histone deacetylase; assay: Inhibitory activity against human HDAC in HeLa cell extract by fluorimetric assay; assay type: cell-free
[3] = target: CYP3A4 (Homo sapiens, UniProt P08684); assay: Percent inhibitory activity against human CYP3A4 at 1uM; assay type: ADME
CYP3A4, sequence (P08684 whole entry): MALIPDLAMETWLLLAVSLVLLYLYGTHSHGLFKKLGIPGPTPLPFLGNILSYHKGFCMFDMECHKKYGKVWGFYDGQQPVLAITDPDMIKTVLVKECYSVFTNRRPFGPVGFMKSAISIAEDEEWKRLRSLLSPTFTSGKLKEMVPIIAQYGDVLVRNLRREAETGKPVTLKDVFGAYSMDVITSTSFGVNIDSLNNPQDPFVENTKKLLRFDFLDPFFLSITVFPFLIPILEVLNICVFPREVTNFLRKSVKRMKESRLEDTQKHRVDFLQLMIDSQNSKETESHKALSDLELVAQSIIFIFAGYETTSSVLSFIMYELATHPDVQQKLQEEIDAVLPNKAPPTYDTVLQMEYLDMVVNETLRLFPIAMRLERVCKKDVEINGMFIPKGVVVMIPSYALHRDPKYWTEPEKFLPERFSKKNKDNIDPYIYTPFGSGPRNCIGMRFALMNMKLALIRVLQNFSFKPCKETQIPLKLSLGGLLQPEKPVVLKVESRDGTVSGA

[4] = target: CYP2D6 (Homo sapiens, UniProt P10635); assay: Percent inhibitory activity against human CYP2D6 at 1uM; assay type: ADME
CYP2D6, sequence (P10635 whole entry): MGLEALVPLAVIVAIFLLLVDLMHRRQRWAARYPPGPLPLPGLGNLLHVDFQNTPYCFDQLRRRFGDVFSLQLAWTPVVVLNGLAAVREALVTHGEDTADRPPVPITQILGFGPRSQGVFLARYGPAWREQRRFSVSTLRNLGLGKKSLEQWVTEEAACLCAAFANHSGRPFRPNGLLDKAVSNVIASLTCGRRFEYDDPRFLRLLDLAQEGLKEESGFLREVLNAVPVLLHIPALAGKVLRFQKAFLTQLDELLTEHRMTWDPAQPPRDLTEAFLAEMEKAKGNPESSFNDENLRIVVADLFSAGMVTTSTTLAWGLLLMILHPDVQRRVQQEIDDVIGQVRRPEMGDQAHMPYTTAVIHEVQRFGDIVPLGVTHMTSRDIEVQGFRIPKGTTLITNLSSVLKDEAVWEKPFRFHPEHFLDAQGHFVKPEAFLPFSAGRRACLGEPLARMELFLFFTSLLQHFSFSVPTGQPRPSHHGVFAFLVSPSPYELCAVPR

[5] = target: CYP2C9 (Homo sapiens, UniProt P11712); assay: Percent inhibitory activity against human CYP2C9 at 1uM; assay type: ADME
CYP2C9, sequence (P11712 whole entry): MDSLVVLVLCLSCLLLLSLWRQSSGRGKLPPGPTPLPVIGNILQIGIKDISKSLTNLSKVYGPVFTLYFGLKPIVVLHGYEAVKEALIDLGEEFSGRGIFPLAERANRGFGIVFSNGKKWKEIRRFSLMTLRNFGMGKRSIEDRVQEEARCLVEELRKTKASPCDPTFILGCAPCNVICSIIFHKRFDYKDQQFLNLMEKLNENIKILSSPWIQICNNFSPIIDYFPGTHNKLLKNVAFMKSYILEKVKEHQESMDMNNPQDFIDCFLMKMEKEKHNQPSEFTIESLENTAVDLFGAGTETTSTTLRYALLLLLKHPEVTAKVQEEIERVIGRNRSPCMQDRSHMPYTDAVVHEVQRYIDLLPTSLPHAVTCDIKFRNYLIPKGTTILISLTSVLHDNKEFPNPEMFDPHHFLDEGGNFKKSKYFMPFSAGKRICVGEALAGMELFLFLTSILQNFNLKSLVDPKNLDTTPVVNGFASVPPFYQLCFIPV

[6] = target: CYP2C19 (Homo sapiens, UniProt P33261); assay: Percent inhibitory activity against human CYP2C19 at 1uM; assay type: ADME
CYP2C19, sequence (P33261 whole entry): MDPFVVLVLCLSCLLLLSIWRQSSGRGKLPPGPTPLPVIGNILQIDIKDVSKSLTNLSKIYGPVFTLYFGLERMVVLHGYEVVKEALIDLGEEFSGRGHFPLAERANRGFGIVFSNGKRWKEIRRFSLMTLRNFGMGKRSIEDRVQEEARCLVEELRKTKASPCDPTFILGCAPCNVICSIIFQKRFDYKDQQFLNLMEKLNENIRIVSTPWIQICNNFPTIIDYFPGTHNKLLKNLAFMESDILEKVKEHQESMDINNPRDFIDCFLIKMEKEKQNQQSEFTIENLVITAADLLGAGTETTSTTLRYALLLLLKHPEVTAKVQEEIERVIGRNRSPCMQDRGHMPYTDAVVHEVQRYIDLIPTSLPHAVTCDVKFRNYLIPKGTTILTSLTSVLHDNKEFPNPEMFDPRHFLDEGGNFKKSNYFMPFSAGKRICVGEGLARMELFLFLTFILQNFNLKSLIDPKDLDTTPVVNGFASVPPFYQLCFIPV

[7] = target: T2, CYP1A2 (Homo sapiens, UniProt P05177); assay: Percent inhibitory activity against human CYP1A2 at 1uM; assay type: ADME
T2 sequence (P05177 whole entry): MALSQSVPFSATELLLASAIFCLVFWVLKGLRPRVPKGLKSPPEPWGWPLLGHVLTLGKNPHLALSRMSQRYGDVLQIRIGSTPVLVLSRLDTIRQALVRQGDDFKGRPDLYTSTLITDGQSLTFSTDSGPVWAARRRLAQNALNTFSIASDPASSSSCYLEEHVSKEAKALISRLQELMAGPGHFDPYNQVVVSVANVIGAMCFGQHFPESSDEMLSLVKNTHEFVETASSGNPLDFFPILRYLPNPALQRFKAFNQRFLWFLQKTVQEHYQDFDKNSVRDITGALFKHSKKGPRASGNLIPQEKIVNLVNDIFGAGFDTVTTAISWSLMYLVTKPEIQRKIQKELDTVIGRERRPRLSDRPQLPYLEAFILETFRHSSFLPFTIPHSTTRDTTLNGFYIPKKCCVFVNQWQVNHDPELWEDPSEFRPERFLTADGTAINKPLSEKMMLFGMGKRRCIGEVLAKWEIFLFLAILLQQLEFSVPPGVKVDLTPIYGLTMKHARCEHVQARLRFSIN

[8] = target: hERG (KCNH2) potassium channel (Homo sapiens, UniProt Q12809); assay: Percentage inhibitory activity against hERG potassium channel transfected in CHO cells at 10uM; conditions: CHO cells transfected with hERG
hERG (KCNH2) potassium channel, sequence (Q12809 whole entry): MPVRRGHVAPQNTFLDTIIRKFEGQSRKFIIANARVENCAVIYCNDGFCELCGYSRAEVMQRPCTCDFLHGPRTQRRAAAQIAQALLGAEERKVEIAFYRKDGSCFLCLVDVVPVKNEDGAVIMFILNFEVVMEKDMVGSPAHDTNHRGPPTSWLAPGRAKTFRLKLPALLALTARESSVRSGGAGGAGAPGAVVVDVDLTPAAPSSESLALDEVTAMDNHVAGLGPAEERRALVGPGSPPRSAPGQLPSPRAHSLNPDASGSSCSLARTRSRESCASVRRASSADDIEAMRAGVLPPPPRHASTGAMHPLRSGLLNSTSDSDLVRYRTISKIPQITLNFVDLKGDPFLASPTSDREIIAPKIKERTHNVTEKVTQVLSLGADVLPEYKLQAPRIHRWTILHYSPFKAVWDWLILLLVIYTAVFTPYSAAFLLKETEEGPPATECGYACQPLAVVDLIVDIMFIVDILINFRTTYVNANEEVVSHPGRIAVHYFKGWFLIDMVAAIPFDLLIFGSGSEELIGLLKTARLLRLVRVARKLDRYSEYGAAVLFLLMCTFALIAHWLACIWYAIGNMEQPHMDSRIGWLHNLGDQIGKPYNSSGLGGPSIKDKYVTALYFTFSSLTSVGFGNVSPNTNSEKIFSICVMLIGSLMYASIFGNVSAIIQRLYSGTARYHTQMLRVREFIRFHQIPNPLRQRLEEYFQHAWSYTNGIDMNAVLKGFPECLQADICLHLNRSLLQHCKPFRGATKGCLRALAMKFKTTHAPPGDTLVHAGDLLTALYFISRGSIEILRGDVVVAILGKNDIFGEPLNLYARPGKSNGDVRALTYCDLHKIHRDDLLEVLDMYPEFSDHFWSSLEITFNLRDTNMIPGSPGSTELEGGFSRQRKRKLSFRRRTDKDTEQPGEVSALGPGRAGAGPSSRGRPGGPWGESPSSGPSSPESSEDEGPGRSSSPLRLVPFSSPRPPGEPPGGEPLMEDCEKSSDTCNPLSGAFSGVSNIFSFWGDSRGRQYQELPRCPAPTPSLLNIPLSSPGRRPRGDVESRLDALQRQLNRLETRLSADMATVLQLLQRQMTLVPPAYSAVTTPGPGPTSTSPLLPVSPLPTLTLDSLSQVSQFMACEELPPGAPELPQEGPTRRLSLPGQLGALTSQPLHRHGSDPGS

[9] = target: T3, NAD-dependent protein deacetylase sirtuin-2 (Homo sapiens, UniProt Q8IXJ6)
T3 sequence (Q8IXJ6 whole entry): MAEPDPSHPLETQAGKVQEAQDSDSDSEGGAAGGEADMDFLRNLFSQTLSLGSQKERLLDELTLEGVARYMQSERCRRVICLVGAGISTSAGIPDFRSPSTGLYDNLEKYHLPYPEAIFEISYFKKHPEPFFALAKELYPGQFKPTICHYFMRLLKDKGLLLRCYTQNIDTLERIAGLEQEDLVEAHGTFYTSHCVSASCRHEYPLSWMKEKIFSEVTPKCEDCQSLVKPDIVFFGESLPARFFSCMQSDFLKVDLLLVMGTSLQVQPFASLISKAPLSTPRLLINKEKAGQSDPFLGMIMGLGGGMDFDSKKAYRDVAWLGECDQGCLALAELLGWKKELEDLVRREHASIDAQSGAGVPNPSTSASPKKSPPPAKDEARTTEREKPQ
Description: Inhibitory activity against recombinant human SIRT2 expressed in Escherichia coli by fluorimetric assay

[10] = target: T4, NAD-dependent protein deacetylase sirtuin-1 (Homo sapiens, UniProt Q96EB6)
T4 sequence (Q96EB6 whole entry): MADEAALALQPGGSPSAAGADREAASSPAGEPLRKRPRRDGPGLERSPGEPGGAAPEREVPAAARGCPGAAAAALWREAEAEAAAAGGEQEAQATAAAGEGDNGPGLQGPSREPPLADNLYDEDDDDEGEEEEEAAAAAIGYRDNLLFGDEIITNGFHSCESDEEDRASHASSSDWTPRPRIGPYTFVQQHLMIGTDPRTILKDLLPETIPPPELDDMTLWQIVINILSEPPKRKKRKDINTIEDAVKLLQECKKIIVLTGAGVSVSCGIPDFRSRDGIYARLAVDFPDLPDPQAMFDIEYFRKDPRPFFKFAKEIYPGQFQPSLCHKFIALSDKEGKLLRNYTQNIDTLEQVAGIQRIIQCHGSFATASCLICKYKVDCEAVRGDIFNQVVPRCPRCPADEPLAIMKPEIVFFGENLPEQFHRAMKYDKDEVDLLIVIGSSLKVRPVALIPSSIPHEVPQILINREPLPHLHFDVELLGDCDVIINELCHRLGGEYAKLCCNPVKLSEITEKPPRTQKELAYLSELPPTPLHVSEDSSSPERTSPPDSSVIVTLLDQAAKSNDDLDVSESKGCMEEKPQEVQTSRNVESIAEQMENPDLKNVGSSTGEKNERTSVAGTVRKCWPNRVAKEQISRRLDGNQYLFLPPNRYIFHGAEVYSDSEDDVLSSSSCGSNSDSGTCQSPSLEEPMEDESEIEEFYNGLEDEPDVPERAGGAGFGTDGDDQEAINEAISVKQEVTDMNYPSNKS
Description: Inhibitory activity against recombinant human SIRT1 expressed in Escherichia coli by fluorimetric assay

[11] = target: T4, NAD-dependent protein deacetylase sirtuin-1; remark: listed apart in the source
Description: Inhibitory activity against human SIRT1 by radiochemical Nicotinamide release assay

[12] = Half life in rat liver microsomes; assay type: ADME, Microsome
[13] = system: Liver microsomes; assay: Stability in rat liver microsomes at 10 uM; assay type: ADME, Microsome
[14] = Serum half life in mice administered with 10 mg/kg, po; assay type: ADME, organism-based; design: dose 10 mg/kg, route oral; conditions: C57bl/6J, mouse

Q: With NC(=O)C1CCCc2c1[nH]c1ccccc21 (configuration not stated) as the compound, how does the IC50 [1] read?
A: > 100 µM

Q: What about the IC50 [2] of the same compound?
A: > 100 µM

Q: What about the inhibition at 1 µM [3] of the same compound?
A: -22%

Q: What about the inhibition at 1 µM [4] of the same compound?
A: -4%

Q: What about the inhibition at 1 µM [5] of the same compound?
A: -8%

Q: What about the inhibition at 1 µM [6] of the same compound?
A: 5%

Q: And the inhibition at 1 µM [7]?
A: 4%

Q: And the inhibition at 10 µM [8]?
A: 0%

Q: And the IC50 [9]?
A: 24.8 µM

Q: With Cc1ccc2[nH]c3c(c2c1)CCCC3C(N)=O (configuration not stated) as the compound, how does the IC50 [1] read?
A: > 100 µM

Q: And the IC50 [2]?
A: > 100 µM

Q: What about the inhibition at 1 µM [3] of the same compound?
A: -16%

Q: And the inhibition at 1 µM [4]?
A: -3%

Q: And the inhibition at 1 µM [5]?
A: -9%

Q: What about the inhibition at 1 µM [6] of the same compound?
A: 9%

Q: What about the inhibition at 1 µM [7] of the same compound?
A: 7%

Q: And the inhibition at 10 µM [8]?
A: 0%

Q: What about the IC50 [10] of the same compound?
A: 0.205 µM

Q: And the IC50 [9]?
A: 11.5 µM

Q: And the IC50 [11]?
A: 2.5 µM

Q: Which IC50 [10] does the source give for CCOC(=O)C1CCCc2c1[nH]c1ccc(Cl)cc21 (configuration not stated) here?
A: > 100 µM

Q: Which IC50 [10] does the source give for NC(=O)CNC(=O)C1CCCc2c1[nH]c1ccc(Cl)cc21 (configuration not stated) here?
A: > 100 µM

Q: For O=C(O)C1CCCc2c1[nH]c1ccc(Cl)cc21 (configuration not stated), which IC50 [10] is on record?
A: > 100 µM

Q: For O=C(NO)C1CCCc2c1[nH]c1ccc(Cl)cc21 (configuration not stated), which IC50 [10] is on record?
A: 77.6 µM

Q: With NC(=O)C1CCc2c([nH]c3ccc(Cl)cc23)C1 (configuration not stated) as the compound, how does the IC50 [10] read?
A: 34.5 µM

Q: For Cc1ccc2[nH]c3c(c2c1)CCCC3CN (configuration not stated), which IC50 [10] is on record?
A: > 100 µM

Q: Which IC50 [10] does the source give for CCNC(=O)C1CCCc2c1[nH]c1ccc(Cl)cc21 (configuration not stated) here?
A: > 100 µM

Q: For NC(=O)C1CCc2c1[nH]c1ccc(Cl)cc21 (configuration not stated), which IC50 [10] is on record?
A: 0.409 µM

Q: With NC(=O)C1CCc2c1[nH]c1ccccc21 (configuration not stated) as the compound, how does the IC50 [10] read?
A: 2.67 µM

Q: With CC(=O)N1CCc2c([nH]c3ccc(Cl)cc23)C1C(N)=O (configuration not stated) as the compound, how does the IC50 [10] read?
A: 79.9 µM

Q: With Cc1ccc2c(c1)c1c(n2C)C(C(N)=O)CCC1 (configuration not stated) as the compound, how does the IC50 [10] read?
A: > 100 µM

Q: Which IC50 [10] does the source give for CCN(CC)C(=O)C1CCCc2c1[nH]c1ccc(Cl)cc21 (configuration not stated) here?
A: > 100 µM

Q: With NC(=O)C1CCc2c([nH]c3ccc(Br)cc23)C1 (configuration not stated) as the compound, how does the IC50 [10] read?
A: 2.44 µM

Q: For NC(=O)C1CCCc2c1[nH]c1ccc(O)cc21 (configuration not stated), which IC50 [10] is on record?
A: 15 µM

Q: With NC(=O)C1NCCc2c1[nH]c1ccc(Cl)cc21 (configuration not stated) as the compound, how does the IC50 [10] read?
A: 18 µM

Q: Which IC50 [10] does the source give for NC(=O)C1NCCc2c1[nH]c1ccc(Br)cc21 (configuration not stated) here?
A: > 100 µM

Q: With Cc1ccc2[nH]c3c(c2c1)CCCC3(C)C(N)=O (configuration not stated) as the compound, how does the IC50 [10] read?
A: 13 µM

Q: Which IC50 [2] does the source give for NC(=O)C1CCCc2c1[nH]c1ccc(Cl)cc21 (configuration not stated) here?
A: > 100 µM

Q: And the inhibition at 1 µM [3]?
A: -26%

Q: And the inhibition at 1 µM [4]?
A: -5%

Q: What about the inhibition at 1 µM [5] of the same compound?
A: -5%

Q: What about the inhibition at 1 µM [6] of the same compound?
A: 6%

Q: What about the inhibition at 1 µM [7] of the same compound?
A: 11%

Q: And the inhibition at 10 µM [8]?
A: 0%

Q: And the half-life [12]?
A: > 1 h

Q: And the Stability [13]?
A: Stable

Q: And the half-life [14]?
A: 2.27 h

Q: What does the source list for NC(=O)C1CCCCc2c1[nH]c1ccc(Cl)cc21 (configuration not stated)?
A: IC50 [1]: > 100 µM; IC50 [2]: > 100 µM; inhibition at 1 µM [3]: -12%; inhibition at 1 µM [4]: 3%; inhibition at 1 µM [5]: 11%; inhibition at 1 µM [6]: 23%; inhibition at 1 µM [7]: 23%; half-life [12]: > 1 h; Stability [13]: Stable; half-life [14]: 1.57 h
